Measurements taken from patent US5760022A, “Pharmaceutical composition with improved bioavailability of inositol phosphate” (Perstorp AB, priority 1994, dated 1998).
Counter-ions that a name gives are not always drawn.

Assay: bioavailability of IP3 in pigs: concentration of IP3 in blood samples and AUC after intravenous injection, intraduodenal/oral formulation and oral sodium salt
Conditions: pig, in vivo
Description: The blood samples were assayed for the content of IP3 and these measurements were used for the calculation of the reference data as 100% of the substance is introduced into the blood stream after an intravenous injection. Another five pigs were given the composition comprising the mixture of 2,3-dihydroxypropyl octanoate and IP3 as an intraduodenal dosing. The animals were treated with Atropin and anaesthetized with Hypnodil®/Sedaperone® whereafter a laparotomy was carried out. Blood samples were collected at the time intervals mentioned above and the concentration of IP3 was determined in each sample. By calculating the area under the curve (AUC) from a graph where the concentration versus time is shown and comparing the obtained value with a similar calculation from the data after intravenous injection of the substance the bioavailability for this specific formulation is obtained.
Blood samples were collected at the same time intervals as above and the concentration of IP3 was determined. Following a similar procedure the AUC was determined.
Blood samples were collected and the concentration of IP3 were determined.

O=P(O)(O)O[C@@H]1[C@H](OP(=O)(O)O)[C@H](O)[C@@H](O)[C@H](O)[C@H]1OP(=O)(O)O [sodium salt of IP3, D-myo-inositol-1,2,6-trisphosphate]
Normalized AUC (%): 3%
Normalized AUC (%) (iv): 100%
concentration at 0.25 h (iv): 53700 nM
concentration at 0.5 h (iv): 40000 nM
concentration at 1 h (iv): 21600 nM
concentration at 1.5 h (iv): 12100 nM
concentration at 4 h (iv): 2600 nM
concentration at 8 h (iv): 600 nM
conc IP3 (iv, 0 min): 0 nM
concentration at 0.5 h (po): 600 nM
concentration at 1.5 h (po): 500 nM
concentration at 2 h (po): 600 nM
concentration at 4 h (po): 400 nM
concentration at 6 h (po): 400 nM
conc IP3 (po, 0 min): 0 nM
conc IP3 (po, 480 min): 0 nM
